Test results published in patent US20100099770A1, “METHOD FOR TREATING DIABETIC PERIPHERAL NEUROPATHIC PAIN” (SCHWARZ PHARMA AG, priority 2001, published 2010).
Entries after “also recorded” stand apart in the source; their conditions may differ. Marks after values point to notes of the source that are not given here.

Tests used:
[1] = tested on: spontaneous pain induced by unilateral chronic constriction injury; test: Chronic constriction injury (CCI, Bennett model): spontaneous pain; format: in vivo, rat; details: for Spontaneous nociception, weighted pain score, Post-op + Drug: ligated paw, score 0-5, ±SEM
Description: (§1) The effectiveness of harkoseride in reducing spontaneous chronic pain, mechanical allodynia, and thermal hyperalgesia was tested using the chronic constriction injury (CCI) model of peripheral neuropathy, one of the best characterised in vivo animal models used to study chronic pain due to peripheral nerve injury. In this model, loose ligatures are placed around the sciatic nerve, which produces axonal swelling and a partial deafferentation manifested as a significant but incomplete loss of axons in the distal portion of the peripheral nerve. One of the prominent behaviours seen following sciatic nerve ligation is the appearance of hind paw guarding, thought to be an indication of an ongoing spontaneous chronic pain. Support for this idea is derived from reports of increased spinal cord neural activity, and increased spontaneous neuronal discharge in spinothalamic tract neurons and in the ventrobasal thalamus in the absence of overt peripheral stimulation. In addition to the appearance of spontaneous pain behaviours, several abnormalities in stimulus evoked pain occur as a result of CCI, including thermal hyperalgesia and mechanical allodynia. The development of these abnormal stimulus-evoked pains has also been reported as occurring in areas outside the territory of the damaged nerve, areas innervated by uninjured nerves.
(§2) Behavioural tests for spontaneous pain, thermal hyperalgesia, and mechanical allodynia were conducted to evaluate different components of neuropathic pain. Baseline data for each test was collected prior to any experimental procedure; in addition, all animals were tested for the development of chronic pain behaviours 13-25 days after CCI surgery 1 day prior to the day of vehicle (0.04 ml sterile water/10 g body weight) or drug administration and after vehicle/drug administration. The sequence of the tests was (1) spontaneous pain-related behaviour (2) mechanical allodynia, (3) thermal hyperalgesia in order to minimise the influence of one test on the result of the next. The testing procedures and results are presented separately for each aspect of chronic pain. Either 0 (vehicle, 0.04 ml/10 g body weight), 5, 10, 20 or 40 mg/kg of SPM 927 (n=7-23/group) was administered i.p. 15 minutes before the first behavioural test.
Spontaneous pain (ongoing pain without an apparent external stimulus) of the ligated paw was assessed for 5 min following a 10 min acclimation period by use of a rating score (weighted behaviour score scaled 0-5).

[2] = tested on: mechanical allodynia induced by unilateral nerve ligation; test: CCI model: mechanical allodynia (electronic Von Frey); format: in vivo, rat; details: for Mechanical allodynia, pressure to elicit foot withdrawal, Post-op + Drug: ligated hind paw, ±SEM
Description: as §1, §2
Mechanical sensitivity and allodynia of the ligated rat hind paw was quantified by brisk foot withdrawal in response to normally innocuous mechanical stimuli as described previously. Responsiveness to mechanical stimuli was tested with a calibrated electronic Von Frey pressure algometer connected to an online computerised data collection system. A significant decrease in the post operative compared to baseline pressure (g/mm^2) necessary to elicit a brisk foot withdrawal in response to this mechanical stimulus is interpreted as mechanical allodynia.

[3] = tested on: Carrageenan-induced mechanical hyperalgesia; test: Carrageenan-induced mechanical hyperalgesia, paw pressure (Randall-Sellito) test; format: in vivo, rats; details: for nociceptive threshold: inflamed paw, 3 h after carrageenan
Description: Carrageenan-induced mechanical hyperalgesia in rats was induced by subplantar injection of a 0.1 ml of a 2% carrageenan suspension and measured 3 h afterwards by the paw pressure (Randall-Sellito) test.
Drugs and experimental design: SPM 927 and GBP were suspended in 1% methylcellulose and administered i.p. at doses of 10 mg/kg, 20 mg/kg and 40 mg/kg. Pre-treatment time was 30 min before pain measurement. One group of animals served as controls and consequently received an injection of solvent (10 ml/kg) and another group of animals received a reference compound (Carrageenan test: 10 mg/kg indomethacin; Formalin test: 10 mg/kg morphine). Each compound was tested in a separate experiment and each experiment included a control and a reference group. 10 rats per group were used in the Carrageenan test and 6 mice per group in the formalin test.

[4] = tested on: neuropathic pain (CHUNG), tactile stimulation; test: Neuropathic pain (CHUNG) test, tactile stimulation on lesioned paw; format: in vivo, rat; details: for FORCE INDUCING PAW-WITHDRAWAL, % change: compared with lesioned control; for FORCE INDUCING PAW-WITHDRAWAL, mean ± s.e.m.: lesioned paw
From the text: The following Tables 8 and 9 show the effects of harkoseride (hereinafter referred tows SPM 927), carbamazepine, levetiracetam, gabapentin and morphine in the neuropathic pain (CHUNG) test in the rat. Eight (8) rats per group were used.

COC[C@@H](NC(C)=O)C(=O)NCc1ccccc1 [SPM 927, (R)-2-Acetamido-N-benzyl-3-methoxypropionamide]
Spontaneous nociception, weighted pain score, Post-op + Drug ([1]; 5 mg/kg i.p.): 1.8 ± 0.18
Spontaneous nociception, weighted pain score, Post-op + Drug ([1]; 10 mg/kg i.p.): 1.5 ± 0.11
Spontaneous nociception, weighted pain score, Post-op + Drug ([1]; 20 mg/kg i.p.): 0.9 ± 0.14
Spontaneous nociception, weighted pain score, Post-op + Drug ([1]; 40 mg/kg i.p.): 0.8 ± 0.28
effect on level of spontaneous pain (in words) ([1]; 5-40 mg/kg i.p.): did not change
Mechanical allodynia, pressure to elicit foot withdrawal, Post-op + Drug ([2]; 5 mg/kg i.p.): 21.8 ± 2.34 g/mm^2
Mechanical allodynia, pressure to elicit foot withdrawal, Post-op + Drug ([2]; 10 mg/kg i.p.): 29.2 ± 2.85 g/mm^2
Mechanical allodynia, pressure to elicit foot withdrawal, Post-op + Drug ([2]; 20 mg/kg i.p.): 39.6 ± 3.62 g/mm^2
Mechanical allodynia, pressure to elicit foot withdrawal, Post-op + Drug ([2]; 40 mg/kg i.p.): 43.0 ± 5.48 g/mm^2
effect on intensity of mechanical allodynia (in words) ([2]; 5-40 mg/kg i.p.): dose dependently reduced
nociceptive threshold ([3]; 10 mg/kg i.p. 30 min before measurement): 324 ± 15^b
nociceptive threshold ([3]; 20 mg/kg i.p. 30 min before measurement): 426 ± 24^b
nociceptive threshold ([3]; 40 mg/kg i.p. 30 min before measurement): 444 ± 13^b
effect on Carrageenan-induced mechanical hyperalgesia (in words) ([3]; 10, 20, 40 mg/kg i.p.): full reversal; also recorded: comparable to that of the reference compound Indomethacin
FORCE INDUCING PAW-WITHDRAWAL, % change ([4]; 8 mg/kg i.p. -30 min): +56% (b)
FORCE INDUCING PAW-WITHDRAWAL, mean ± s.e.m. ([4]; 8 mg/kg i.p. -30 min): 27.2 ± 4.9 NS (b) g
FORCE INDUCING PAW-WITHDRAWAL, % change ([4]; 16 mg/kg i.p. -30 min): +40% (b)
FORCE INDUCING PAW-WITHDRAWAL, mean ± s.e.m. ([4]; 16 mg/kg i.p. -30 min): 24.4 ± 3.0 NS (b) g
FORCE INDUCING PAW-WITHDRAWAL, % change ([4]; 32 mg/kg i.p. -30 min): +116% (b)
FORCE INDUCING PAW-WITHDRAWAL, mean ± s.e.m. ([4]; 32 mg/kg i.p. -30 min): 37.6 ± 6.1 (b) g
comparison of effects in the CHUNG test (in words) ([4]; tactile and thermal stimulation, i.p.): minimum comparable, but usually more potent than the reference compounds
